This is an account of results in US20090156687A1, “Fab I and inhibition of apicomplexan parasites” (priority 2003, published 2009).

≈ marks a conversion by molar mass, not a printed value. Where two headings read alike, the source gives them in different places.

Data set [1] concerns P. falciparum. Nature of the data set: microbe, parasite or virus in culture. In kind it is cell-based, Plasmodium falciparum. The note with it: for IC50: Plasmodium falciparum. The procedure:
Because Fab I was located, the effects of triclosan on Plasmodium falciparum in vitro were investigated. For P. falciparum, the in vitro assays (Milhous et al., 1985; Oduola et al., 1988) were conducted using a modification of the semiautomated microdilution technique for assessing anti-folate antagonists. Instead of dialysed human plasma, 10% Albumax I (Gibco BRL), a serum-free substitute, was used to supplement the RPMI 1640 medium. All test compounds were dissolved in DMSO and diluted 400-fold into complete medium before serial dilution over 11 concentrations. Incubation was at 37° C. in 5% O2, 5% CO2 and 90% N2 for 48 h. [3H]-Hypoxanthine incorporation was measured as described previously (Milhous et al, 1985; Oduola et al, 1988).
P. falciparum. The in vitro assays (Oduala et al., 1988; Milhous et al., 1985) were conducted using a modification of the semiautomated microdilution technique for assessing antifolate antagonists. Instead of dialysed human plasma, 10% Albumaz I (Gibco BRL), a serum-free substitute, was used to supplement the RPMI 16-40 media. All test compounds were dissolved in DMSO and diluted 400-fold into complete media before serial dilution over 11 concentrations. Incubation was at 37° C. in 5% O2, 5% CO2 and 90% N2 for 48h, [3H]-Hypoxanthine incorporation was measured as described previously (13, 14).

Data set [2] deals with T. gondii. Briefly: T. gondii growth inhibition in human foreskin fibroblasts, 3H uracil uptake. In kind it is cell-based, Toxoplasma gondii. The following applies: for percentage inhibition of T. gondii uracil uptake: 125 nanograms per ml. The procedure: For T. gondii, growth inhibition was assessed over a 4-day period as described previously (Mack et al., 1984; Roberts et al., 1998; Zuther et al., 1999) using human foreskin fibroblasts (HFF) infected with 105 tachyzoites of the RH strain of T. gondii. The assays are based on microscopic visual inspection of infected and inhibitor treated cultures, and on quantitation of nucleic acid synthesis of the parasite by measuring uptake of 3H uracil into the parasite's nucleic acid. Uracil is not utilized by mammalian cells. Parasites present as tachyzoites (RH, Ptg., a clone derived from the Me49 strain), bradyzoites (Me49), and R5 mutants (mixed tachyzoites/bradyzoites of the Me49 strain that can be stage switched by culture conditions) (Bohne et al., 1993; Soete et al., 1994; Tomovo and Boothroyd, 1995; Weiss et al., 1992) are suitable for assay systems used to study effectsof inhibitors. Only the RH strain tachyzoites, cultured for up to 72 hours, had been used in previously reported assays. The use of Me49, Ptg, and R5 mutants are unique aspects of the methods used in these assays in this invention.
(§1) In these assays toxicity of a candidate inhibitor was assessed by its ability to prevent growth of human foreskin fibroblasts (HFF) after 4 days and after 8 days as measured by tritiated thymidine uptake and microscopic evaluation. Confluent monolayers of HFF were infected with tachyzoites and bradyzoites. Inhibitor was added one hour later. Non-toxic doses were used in parasite growth inhibition assays. Parasite growth was measured by ability to incorporate tritiated uracil during the last 48 hours of culture.
T. gondii in vitro. Growth inhibition was assessed over a 4-day period as described previously by Roberts et al., 1998; Zuther et al., 1999; and Mack et al., 1984, all incorporated by reference, using human foreskin fibroblasts (HFF) infected with 105 tachyzoites of the RH strain of T. gondii. Uptake of 3H uracil was determined. Evaluation of slides of preparations containing HFF, Toxoplasma and inhibitors were made.

The test system of data set [3] is human foreskin fibroblasts (HFF). Nature of the data set: Toxicity to host cells, tritiated thymidine uptake and microscopic evaluation. The following applies: at concentrations effective against T. gondii. The data set is classed as cell-based. The procedure: as §1
In another data set the target is P. falciparum FAB I (Plasmodium falciparum, UniProt Q9BH77). Briefly: Fab I enzyme activity (NADH dependent). The note with it: purified P. falciparum FAB I. The data set is classed as biochemical.
Another data set has as its system P. berghei. Briefly: P. berghei murine model. In kind it is in vivo. The note with it: subcutaneously, 3 or 38 mg/kg.
Data set [4] relates to P. falciparum. Briefly: In vitro synergy with cerulein. More on the design: species or system Plasmodium falciparum. The note with it: cerulein (inhibitor of Fab F, B, H) with triclosan.
Data set [5] concerns T. gondii. The note with it: literature (Waller et al., 1998; Zuther et al., 1999); cited from earlier work.
The next data set concerns Cryptosporidia. In kind it is cell-based.
Another data set relates to EPSP synthase. Nature of the data set: EPSP synthase enzyme activity. In kind it is biochemical, T. gondii. The following applies: 1 mM.
Where [6] appears, read: 48 h, read-out: IC 50 when cultured with P Falciparum, strain TM91C234, 48 h.
[7] abbreviates: 48 h, read-out: IC 50 when cultured with P Falciparum, strain W2 (chloroquine and pyrimethamine resistant), 48 h.
[8] abbreviates: TM90C2A, 48 h, read-out: IC 50 when cultured with P Falciparum, strain TM90C2A (chloroquine and mefloquine resistant, admission isolate), 48 h.
Setting [9] is: TM90C2B, 48 h, read-out: IC 50 when cultured with P Falciparum, strain TM90C2B (recrudescent isolate, atovaquone resistant), 48 h.

P. falciparum FAB I, sequence (Q9BH77 entry or part of it): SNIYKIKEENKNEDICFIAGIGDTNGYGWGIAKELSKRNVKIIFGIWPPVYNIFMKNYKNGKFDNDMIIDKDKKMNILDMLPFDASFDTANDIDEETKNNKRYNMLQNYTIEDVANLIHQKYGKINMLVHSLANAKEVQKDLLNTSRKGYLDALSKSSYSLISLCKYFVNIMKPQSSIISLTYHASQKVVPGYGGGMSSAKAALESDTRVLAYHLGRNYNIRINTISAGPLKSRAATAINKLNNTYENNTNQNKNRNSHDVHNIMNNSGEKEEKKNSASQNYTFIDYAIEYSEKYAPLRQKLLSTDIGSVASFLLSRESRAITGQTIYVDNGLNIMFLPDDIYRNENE

For the molecule `Oc1cc(Cl)ccc1Oc1ccc(Cl)cc1Cl` [Triclosan, 5-chloro-2-[2,4 dichloropheoxyl] phenol], the IC50 in the data set on P. falciparum [1] (48 h, strain TM91C234, 48 h, read-out: IC 50 when cultured with P Falciparum) is 1.8 µg/mL (≈ 6.22 µM); in the data set on P. falciparum [1] (TM90C2A, 48 h, read-out: IC 50 when cultured with P Falciparum), 1.89 µg/mL (≈ 6.53 µM); with P. falciparum [1] (TM90C2B, 48 h, strain TM90C2B (recrudescent isolate, atovaquone resistant), 48 h, read-out: IC 50 when cultured with P Falciparum), 1.33 µg/mL (≈ 4.59 µM); with P. falciparum [1] (W2, strain W2, text value, read-out: IC50 against pyrimethamine resistant P. falciparum (W2)), 0.15 µg/mL (≈ 0.518 µM); in the data set with P. falciparum [1] (range over strains, read-out: IC50, growth and survival of P. falciparum) it was 0.15 to 2 µg/mL (≈ 0.518 to 6.91 µM); in the data set on T. gondii [2] (Toxoplasma gondii, Fibroblast, 96 h, read-out: IC50, T. gondii uracil uptake), 0.062 µg/mL (≈ 0.214 µM). Moreover, the “percentage inhibition of T. gondii uracil uptake” value in the data set on T. gondii [2] (day 1, separate experiment) is reported as 20%; in the data set with T. gondii [2] (day 4, separate experiment), 72%. For the same molecule, the “IC50, T. gondii uracil uptake” value in the data set on T. gondii [2] (RH strain in HFF, 4 days after infection) is on record as 62 nanograms/ml. Moreover, the entries for the “toxicity to host cells / host cells uptake of thymidine” value in [3] and in data set [3] (listed as triclosan) were “no toxicity” and “no inhibitory effect”, respectively. For the same molecule, on P. falciparum FAB I, the “FAB I enzyme activity” value is on record as “inhibited”. The death entry with P. berghei is given as “prevented death”. Also, the parasitemia result in the data set with P. berghei is reported as “cleared parasitemia”. Besides, in the data set with P. berghei, the “toxicity in P. berghei murine model” value was “nontoxic”.
Turning to `C/C=C/C/C=C/CCC(=O)[C@H]1O[C@H]1C(N)=O`, in the data set on P. falciparum [4], the synergy in vitro entry is “Synergy”.
As for `C=C/C(C)=C/[C@@]1(C)SC(=O)C(C)=C1O` [thiolactomycin], the “growth of T. gondii in vitro” value in the data set with T. gondii [5] is listed as “restrict the growth”.
`O=C(O)CNCP(=O)(O)O` [NPMG]: the “in vitro growth of asexual erythrocytic forms” value in the data set on P. falciparum [1] (P. falciparum) is given as “inhibition”. Besides, in the data set on T. gondii [2] (RH strain), the “uptake of tritiated uracil by tachyzoites” value was “inhibited”. For the same molecule, in the data set with Cryptosporidia, the “effect on Cryptosporidia” value is “inhibitory effects”. Besides, the “EPSP synthase enzyme activity” value with EPSP synthase is listed as “inhibition”.
Regarding `O=C(O)CC[N+](=O)[O-]` [3NPA], in the data set with Cryptosporidia, the “effect on Cryptosporidia” value is recorded as “inhibited”.
Turning to `Oc1cccc2cccnc12` [8-OH-quinoline], the “effect on Cryptosporidia” value with Cryptosporidia is “inhibitory effects”.
`OC(c1cc(C(F)(F)F)nc2c(C(F)(F)F)cccc12)C1CCCCN1` (stereo not shown) [Mefloquine]: the IC50 in the data set with P. falciparum [1] (48 h, read-out: IC 50 when cultured with P Falciparum) amounted to 0.0053 µg/mL (≈ 0.014 µM); in the data set on P. falciparum [1] (setting [6]), 0.0196 µg/mL (≈ 0.0518 µM); with P. falciparum [1] (setting [7]) it was 0.002 µg/mL (≈ 0.00529 µM); with P. falciparum [1] (setting [8]) it was 0.0245 µg/mL (≈ 0.0648 µM); in the data set on P. falciparum [1] (setting [9]) it was 0.0193 µg/mL (≈ 0.051 µM).
For the molecule `C[C@@H](Oc1ccc(Oc2ncc(Cl)cc2F)cc1)C(=O)O` [clodinafop], the “inhibition of T. gondii” value with T. gondii [2] (1 micromolar) is recorded as “ionhibited”.
Regarding `CCN(CC)CCCC(C)Nc1ccnc2cc(Cl)ccc12` (stereo not shown) [Chloroquine], the IC50 in the data set with P. falciparum [1] (48 h, read-out: IC 50 when cultured with P Falciparum, strain D6 (chloroquine and pyrimethamine susceptible), 48 h) stood at 0.0038 µg/mL (≈ 0.0119 µM); with P. falciparum [1] (setting [6]), 0.0461 µg/mL (≈ 0.144 µM); in the data set on P. falciparum [1] (setting [7]), 0.162 µg/mL (≈ 0.508 µM); with P. falciparum [1] (setting [8]), 0.0573 µg/mL (≈ 0.179 µM); with P. falciparum [1] (setting [9]), 0.0827 µg/mL (≈ 0.259 µM); with P. falciparum [1] (W2, read-out: IC50 against pyrimethamine resistant P. falciparum (W2), strain W2, text value), 0.16 µg/mL (≈ 0.5 µM).
For the molecule `NC1C=CC=C(C(=O)O)C1` (racemic) [gabaculine], the “effect on Cryptosporidia” value with Cryptosporidia is recorded as “inhibitory effects”.
On to `O=C(NO)c1ccccc1O` [SHAM], for which the “effect on Cryptosporidia” value in the data set on Cryptosporidia is on record as “inhibitory effects”.
